Data: ChEMBL document CHEMBL1144838, “Use of lantibiotic synthetases for the preparation of bioactive constrained peptides” (Bioorg Med Chem Lett, 2008)
Non-standard residues stand in square brackets, D forms with d. Residues, ends and D or L forms follow the SMILES beside them. Dha = C=C(N)C(=O)O

What was measured:
Mus musculus [1] = species: Mus musculus; assay: Agonist activity at mu opioid receptor in mouse model; assay type: functional
Mus musculus [2] = species: Mus musculus; assay: Agonist activity at mouse delta opioid receptor in mouse model; assay type: functional
Tripeptidyl-peptidase 2 = Tripeptidyl-peptidase 2 (Homo sapiens, UniProt P29144); assay: Inhibition of human tripeptidyl peptidase2 from erythrocytes
Tripeptidyl-peptidase 2, sequence (P29144 whole entry): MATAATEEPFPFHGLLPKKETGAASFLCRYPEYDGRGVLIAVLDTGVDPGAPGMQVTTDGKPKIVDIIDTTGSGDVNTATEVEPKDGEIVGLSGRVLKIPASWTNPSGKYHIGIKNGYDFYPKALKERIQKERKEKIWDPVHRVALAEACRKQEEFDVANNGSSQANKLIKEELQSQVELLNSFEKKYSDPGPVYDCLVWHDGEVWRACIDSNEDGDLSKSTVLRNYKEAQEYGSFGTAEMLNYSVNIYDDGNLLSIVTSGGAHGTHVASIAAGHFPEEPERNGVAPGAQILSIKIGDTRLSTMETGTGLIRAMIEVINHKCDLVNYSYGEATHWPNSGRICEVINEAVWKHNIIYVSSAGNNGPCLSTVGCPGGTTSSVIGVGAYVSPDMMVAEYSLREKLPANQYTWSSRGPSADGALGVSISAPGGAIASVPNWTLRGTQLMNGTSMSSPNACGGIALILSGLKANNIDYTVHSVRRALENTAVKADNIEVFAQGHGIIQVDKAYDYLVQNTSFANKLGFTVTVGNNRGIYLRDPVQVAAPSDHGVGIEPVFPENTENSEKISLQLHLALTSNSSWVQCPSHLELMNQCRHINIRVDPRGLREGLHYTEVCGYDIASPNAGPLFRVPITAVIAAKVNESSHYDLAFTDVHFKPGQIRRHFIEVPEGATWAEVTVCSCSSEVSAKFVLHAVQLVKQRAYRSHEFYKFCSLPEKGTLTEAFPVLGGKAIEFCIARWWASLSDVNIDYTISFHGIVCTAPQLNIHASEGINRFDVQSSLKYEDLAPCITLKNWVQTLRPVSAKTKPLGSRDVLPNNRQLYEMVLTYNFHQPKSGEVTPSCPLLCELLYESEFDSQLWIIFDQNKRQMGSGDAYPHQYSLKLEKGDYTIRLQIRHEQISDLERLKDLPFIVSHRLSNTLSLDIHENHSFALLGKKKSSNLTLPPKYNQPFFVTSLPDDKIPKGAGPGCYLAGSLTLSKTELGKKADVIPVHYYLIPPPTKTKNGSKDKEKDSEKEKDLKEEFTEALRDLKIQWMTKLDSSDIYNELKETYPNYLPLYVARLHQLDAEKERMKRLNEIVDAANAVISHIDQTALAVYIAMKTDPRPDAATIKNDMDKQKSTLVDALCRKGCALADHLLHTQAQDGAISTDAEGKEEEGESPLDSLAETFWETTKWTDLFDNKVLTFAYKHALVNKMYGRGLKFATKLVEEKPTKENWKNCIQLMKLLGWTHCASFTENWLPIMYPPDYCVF

Structure (SMILES)	ED50 (Mus musculus [1])	ED50 (Mus musculus [2])	Ki (Tripeptidyl-peptidase 2)
N[C@@H](Cc1ccc(O)cc1)C(=O)N[C@@H]1CSC[C@@H](C(=O)O)NC(=O)[C@H](Cc2ccccc2)NC(=O)CNC1=O	0.0018 nM	0.0018 nM	
C=C(NC(=O)[C@H](C)NC(=O)[C@@H](N)CCCNC(=N)N)C(=O)N[C@H](C(=O)N[C@@H](C)C(=O)O)C(C)C (H-RA[Dha]VA-OH)			20 nM
CN1CC[C@]23c4c5ccc(O)c4O[C@H]2[C@@H](O)C=C[C@H]3[C@H]1C5 [MORPHINE]	15 nM	15 nM	
